# Read-outs that look alike come from different tables or passages of the source.
# Legend:
# [1] = test system: (R)-2,3-butanediol dehydrogenase; experiment: Behavior of (R)-2,3-butanediol dehydrogenase to reagents (residual glycerol dehydrogenase activity); type: biochemical, Pichia angusta; details: for Inhibition of the enzyme by reagent (in words): treated at 30° C. for 10 minutes
# Method: After treated with various reagents at 30° C. for 10 minutes, glycerol dehydrogenase activity was assayed.
# [2] = target: glycerol dehydrogenase produced by Escherichia coli (Escherichia coli W-1485) (Escherichia coli, UniProt P0A9S5); details: J. Biol. Chem., 259:2124-2129, 1984; cited from earlier work
# [3] = target: (R)-2,3-butanediol dehydrogenase derived from Saccharomyces cerevisiae (Saccharomyces cerevisiae, UniProt P39714); details: Arch. Microbiol., 154:267-273, 1990; cited from earlier work
# [4] = test system: (R)-2,3-butanediol dehydrogenase derived from Pichia angusta; experiment: Coenzyme usability; type: biochemical; details: NADP+ in oxidation reaction, NADPH in reduction reaction
# From the text: However, regardless of the usability of NADP^+ and NADPH, an enzyme having the above-mentioned physicochemical properties (1) to (3), preferably (1) to (6), and even more preferably (1) to (9) is included in the present invention.
# [5] = test system: recombinant (R)-2,3-butanediol dehydrogenase, HB101 (pSE-PAD1) cell extract; experiment: Substrate specificity of recombinant enzyme, oxidation reaction; type: biochemical, Pichia angusta; details: for HB101 (pSE-PAD1) Relative activity: glycerol = 100%
# Method: The quantification of polypeptide is carried out by a dye-binding method using a protein assay kit from BioRad.
# (§1) The bacterial cells were collected by centrifugal separation and then suspended in 100 mM potassium phosphate buffer (pH 8.0) containing 0.02% 2-mercaptoethanol; the bacterial cells were lysed by the treatment with a closed sonic chamber device UCD-200TM (Cosmo Bio) for 4 minutes. The bacterial cell lysate was separated by centrifugation and the resulting supernatant was recovered as a bacterial cell extract.
# [6] = test system: E. coli HB101 cell-free extract prepared in the absence of plasmid; type: biochemical
# Method: as §1
# [7] = test system: (R)-2,3-butanediol dehydrogenase; experiment: Substrate specificity of purified (R)-2,3-butanediol dehydrogenase (dehydrogenation activity); type: biochemical, Pichia angusta; details: substrate 500 mM; glycerol dehydrogenation activity with NAD+ as coenzyme taken as 100; ND: not detectable
# Method: The enzyme obtained in Example 1 was allowed to react with various reagents of 500 mM, and then the dehydrogenation activity was assayed.
# [8] = test system: (R)-2,3-butanediol dehydrogenase; experiment: Stereoselectivity of purified (R)-2,3-butanediol dehydrogenase; type: biochemical, Pichia angusta
# Method: The enzyme obtained in Example 1 was allowed to react with each of the two isomers 1,2-propanediol and 2,3-butanediol (500 mM each).
# [9] = test system: recombinant (R)-2,3-butanediol dehydrogenase, HB101 (pSE-PAD1) cell extract; experiment: Substrate specificity of recombinant enzyme, reduction reaction; type: biochemical, Pichia angusta; details: substrate 20 mM; for HB101 (pSE-PAD1) Relative activity: dihydroxyacetone = 100%
# Method: as §1
# [10] = test system: E. coli HB101 cell-free extract prepared in the absence of plasmid; experiment: Host only cell-free extract, reduction reaction; type: biochemical; details: substrate 20 mM
# Method: as §1
# [11] = oxidation reaction, substrate 50 mM
# [12] = reagent 1 mM, 30° C. for 10 minutes, glycerol dehydrogenase activity
# [13] = oxidation reaction, substrate 100 mM
# glycerol dehydrogenase produced by Escherichia coli (Escherichia coli W-1485), sequence (P0A9S5 whole entry): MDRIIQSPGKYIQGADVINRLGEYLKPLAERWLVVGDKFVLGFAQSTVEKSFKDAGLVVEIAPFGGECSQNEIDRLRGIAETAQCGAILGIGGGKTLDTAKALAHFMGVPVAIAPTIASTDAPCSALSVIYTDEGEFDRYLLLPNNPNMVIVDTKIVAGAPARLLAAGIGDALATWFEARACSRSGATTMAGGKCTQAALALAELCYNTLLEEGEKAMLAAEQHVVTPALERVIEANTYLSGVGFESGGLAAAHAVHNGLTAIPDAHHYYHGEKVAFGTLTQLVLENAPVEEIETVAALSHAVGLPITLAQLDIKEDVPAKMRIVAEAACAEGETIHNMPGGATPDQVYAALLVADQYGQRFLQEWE
# (R)-2,3-butanediol dehydrogenase derived from Saccharomyces cerevisiae, sequence (P39714 whole entry): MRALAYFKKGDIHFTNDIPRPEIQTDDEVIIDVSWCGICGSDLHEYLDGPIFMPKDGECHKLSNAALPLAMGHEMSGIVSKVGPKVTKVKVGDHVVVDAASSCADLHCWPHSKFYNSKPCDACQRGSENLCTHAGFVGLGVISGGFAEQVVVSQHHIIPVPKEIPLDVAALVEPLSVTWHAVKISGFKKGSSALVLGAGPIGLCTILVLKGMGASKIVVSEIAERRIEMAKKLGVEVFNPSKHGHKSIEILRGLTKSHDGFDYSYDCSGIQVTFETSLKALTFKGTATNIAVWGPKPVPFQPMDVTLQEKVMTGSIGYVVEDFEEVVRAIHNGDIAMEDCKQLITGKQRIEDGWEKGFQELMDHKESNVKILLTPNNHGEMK
molecule,measurement,setting,value
[Ca+2].[Cl-].[Cl-] [calcium chloride],Residual activity,[1],105%
[Cl][Ni][Cl] [nickel chloride],Residual activity,[1],99%
"CC(O)C(C)O (racemic) [DL-2,3-butanediol]",Vmax,[2],21.2 U/mg protein
same,dehydrogenase activity,[3],about 20.3 U/mg protein
NC(=O)c1ccc[n+]([C@@H]2O[C@H](COP(=O)([O-])OP(=O)(O)OC[C@H]3O[C@@H](n4cnc5c(N)ncnc54)[C@H](OP(=O)(O)O)[C@@H]3O)[C@@H](O)[C@H]2O)c1 [NADP^+],Usability as a coenzyme (in words),[4],substantially impossible
[Ba+2].[Cl-].[Cl-] [barium chloride],Residual activity,[1],112%
"C[C@H](O)CCO [(S)-1,3-butanediol]",HB101 (pSE-PAD1) activity,[5]; substrate 50 mM,0.042 U/mg
same,HB101 (pSE-PAD1) Relative activity,[5]; substrate 50 mM,18.3%
same,Host only activity,[6]; [11],0 U/mg
"CC(O)CO (centres unmarked) [1,2-propanediol]",Relative activity,[7],700%
[Cl][Fe][Cl] [iron (II) chloride],Residual activity,[1]; [12],163%
[Cl][Hg][Cl] [mercury chloride],Residual activity,[1]; [12],0%
same,Inhibition of the enzyme by reagent (in words),[1],markedly inhibited
"CCC(O)CO (racemic) [(RS)-1,2-butanediol]",HB101 (pSE-PAD1) activity,[5]; substrate 100 mM,0.200 U/mg
same,HB101 (pSE-PAD1) Relative activity,[5]; substrate 100 mM,87.6%
same,Host only activity,[6]; [13],0.002 U/mg
"OC[C@@H](O)CCl [(R)-3-chloro-1,2-propanediol]",HB101 (pSE-PAD1) activity,[5]; substrate 50 mM,0.002 U/mg
same,HB101 (pSE-PAD1) Relative activity,[5]; substrate 50 mM,0.9%
same,Host only activity,[6]; [11],0 U/mg
"CC(O)CCO (centres unmarked) [1,3-butanediol]",Relative activity,[7],58%
"OC[C@H](O)CCl [(S)-3-chloro-1,2-propanediol]",HB101 (pSE-PAD1) activity,[5]; substrate 50 mM,0.057 U/mg
same,HB101 (pSE-PAD1) Relative activity,[5]; substrate 50 mM,24.8%
same,Host only activity,[6]; [11],0.001 U/mg
[Cl][Co][Cl] [cobalt chloride],Residual activity,[1]; [12],102%
[Cl-].[Cl-].[Zn+2] [zinc chloride],Residual activity,[1],113%
"CC(O)C(C)O (centres unmarked) [2,3-butanediol]",Relative activity,[7],3030%
"CC(O)C(C)O (stereo not drawn) [Meso-2,3-butanediol]",HB101 (pSE-PAD1) activity,[5]; substrate 50 mM,1.163 U/mg
same,HB101 (pSE-PAD1) Relative activity,[5]; substrate 50 mM,509%
same,Host only activity,[6]; [11],0 U/mg
manganese chloride,Residual activity,[1],105%
"O=C(O)c1cc[c]([Hg][Cl])cc1 [PCMB, p-chloromercuribenzoic acid]",Residual activity,"[1]; reagent 0.1 mM, 30° C. for 10 minutes, glycerol dehydrogenase activity",0%
same,Inhibition of the enzyme by reagent (in words),[1],markedly inhibited
O=C(O)CI [iodoacetic acid],Residual activity,[1],91%
"C[C@H](O)CO [(S)-1,2-propanediol]",Relative activity,[8],400%
same,HB101 (pSE-PAD1) activity,[5]; substrate 50 mM,0.246 U/mg
same,HB101 (pSE-PAD1) Relative activity,[5]; substrate 50 mM,108%
same,Host only activity,[6]; [11],0 U/mg
CC(=O)C(C)O (centres unmarked) [3-hydroxy-2-butanone],HB101 (pSE-PAD1) activity,[5]; substrate 50 mM,0.020 U/mg
same,HB101 (pSE-PAD1) Relative activity,[5]; substrate 50 mM,8.8%
same,HB101 (pSE-PAD1) activity,[9],0.696 U/mg
same,HB101 (pSE-PAD1) Relative activity,[9],71.2%
same,Host only activity,[6]; [11],0.006 U/mg
same,Host only activity,[10],0.009 U/mg
"CC(=O)C(C)=O [2,3-butanedion]",HB101 (pSE-PAD1) activity,[9],1.906 U/mg
same,HB101 (pSE-PAD1) Relative activity,[9],195%
same,Host only activity,[10],0.018 U/mg
"O=C(O)CN(CCN(CC(=O)O)CC(=O)O)CC(=O)O [EDTA, ethylenediaminetetraacetic acid]",Residual activity,[1]; [12],93%
same,Inhibition of the enzyme by reagent (in words),[1],not
"C[C@@H](O)CO [(R)-2,3-propanediol]",Relative activity,[8],6100%
NC(=O)C1=CN([C@@H]2O[C@H](COP(=O)(O)OP(=O)(O)OC[C@H]3O[C@@H](n4cnc5c(N)ncnc54)[C@H](OP(=O)(O)O)[C@@H]3O)[C@@H](O)[C@H]2O)C=CC1 [NADPH],Usability as a coenzyme (in words),[4],substantially impossible
"c1ccc(-c2ccccn2)nc1 [2,2′-dipyridyl]",Residual activity,[1]; [12],0%
same,Inhibition of the enzyme by reagent (in words),[1],markedly inhibited
CC(=O)CCO [4-hydroxy-2-butanone],HB101 (pSE-PAD1) activity,[9],0.011 U/mg
same,HB101 (pSE-PAD1) Relative activity,[9],1.1%
same,Host only activity,[10],0.006 U/mg
"C[C@H](O)[C@H](C)O [(2S,3S)-2,3-butanediol]",HB101 (pSE-PAD1) activity,[5]; substrate 50 mM,0.059 U/mg
same,HB101 (pSE-PAD1) Relative activity,[5]; substrate 50 mM,26.1%
same,Host only activity,[6]; [11],0 U/mg
CCC(C)=O [2-butanone],HB101 (pSE-PAD1) activity,[9],0.008 U/mg
same,HB101 (pSE-PAD1) Relative activity,[9],0.8%
same,Host only activity,[10],0.002 U/mg
(S)-1-amino-2-propanol,HB101 (pSE-PAD1) activity,[5]; substrate 50 mM,0.018 U/mg
same,HB101 (pSE-PAD1) Relative activity,[5]; substrate 50 mM,8.0%
same,Host only activity,[6],0.007 U/mg
(S)-2-butanol,HB101 (pSE-PAD1) activity,[5]; substrate 50 mM,0.024 U/mg
same,HB101 (pSE-PAD1) Relative activity,[5]; substrate 50 mM,10.7%
same,Host only activity,[6],0 U/mg
[Cl][Cu][Cl] [copper chloride],Residual activity,[1]; [12],0%
same,Inhibition of the enzyme by reagent (in words),[1],markedly inhibited
[Cl][Fe]([Cl])[Cl] [iron (III) chloride],Residual activity,[1]; [12],0%
same,Inhibition of the enzyme by reagent (in words),[1],markedly inhibited
"O=C(O)c1cc(SSc2ccc([N+](=O)[O-])c(C(=O)O)c2)ccc1[N+](=O)[O-] [DTNB, 5,5′-dithiobis (2-nitrobenzoic acid)]",Residual activity,[1]; [12],59%
[Cl-].[Cl-].[Mg+2] [magnesium chloride],Residual activity,[1],105%
c1cnc2c(c1)ccc1cccnc12 [o-phenanthroline],Residual activity,[1]; [12],0%
same,Inhibition of the enzyme by reagent (in words),[1],markedly inhibited
(R)-2-butanol,HB101 (pSE-PAD1) activity,[5]; substrate 50 mM,0.022 U/mg
same,HB101 (pSE-PAD1) Relative activity,[5]; substrate 50 mM,9.6%
same,Host only activity,[6],0 U/mg
"C[C@@H](O)CO [(R)-1,2-propanediol]",Relative activity,[8],2000%
same,HB101 (pSE-PAD1) activity,[5]; substrate 50 mM,1.077 U/mg
same,HB101 (pSE-PAD1) Relative activity,[5]; substrate 50 mM,473%
same,Host only activity,[6]; [11],0 U/mg
[Cl-].[Li+] [lithium chloride],Residual activity,[1]; [12],101%
CC(=O)CO [Hydroxyacetone],HB101 (pSE-PAD1) activity,[9],0.364 U/mg
same,HB101 (pSE-PAD1) Relative activity,[9],37.2%
same,Host only activity,[10],0 U/mg
"C[C@H](O)CO [(S)-2,3-propanediol]",Relative activity,[8],160%
(R)-1-amino-2-propanol,HB101 (pSE-PAD1) activity,[5]; substrate 50 mM,0.051 U/mg
same,HB101 (pSE-PAD1) Relative activity,[5]; substrate 50 mM,22.2%
same,Host only activity,[6],0.007 U/mg
NNc1ccccc1 [Phenylhydrazine],Residual activity,[1]; [12],110%
OCC(O)CO [Glycerol],Relative activity,[7],100%
same,Relative activity,"[8]; substrate 500 mM, activity to glycerol taken as 100",100%
same,HB101 (pSE-PAD1) activity,[5]; substrate 100 mM,0.228 U/mg
same,HB101 (pSE-PAD1) Relative activity,[5]; substrate 100 mM,100%
same,Host only activity,[6]; [13],0 U/mg
"CCC(O)CO (centres unmarked) [1,2-butanediol]",Relative activity,[7],130%
"C[C@@H](O)[C@@H](C)O [(2R,3R)-2,3-butanediol]",HB101 (pSE-PAD1) activity,[5]; substrate 50 mM,1.414 U/mg
same,HB101 (pSE-PAD1) Relative activity,[5]; substrate 50 mM,620%
same,Host only activity,[6]; [11],0 U/mg
same,Vmax,[2],28.0 U/mg protein
"C[C@@H](O)CCO [(R)-1,3-butanediol]",HB101 (pSE-PAD1) activity,[5]; substrate 50 mM,0.259 U/mg
same,HB101 (pSE-PAD1) Relative activity,[5]; substrate 50 mM,114%
same,Host only activity,[6]; [11],0 U/mg

# From patent US6818426B2 (Daicel Chemical Industries, Ltd., priority 2000, dated 2004)
